Reference: ChEMBL document CHEMBL1201862, “PubChem BioAssay data set” (2004)
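Test compounds were applied to cells in 96-well plates for 48 hours at 5 doses. GI50 marks 50% less growth.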 The source made the active and inactive calls. No stated cut-off is given here; in the data, active = GI50 up to about 1.1 µM and inactive = higher.

System: Hs-578T
Assay: growth of human tumour cells (NCI), 48 h

Compound: CCOc1ccccc1Nc1ccc(N)cc1S(=O)(=O)O
- GI50: > 100 µM (inactive)

Compound: CC(C)CNC(=O)O
- GI50: > 100 µM (inactive)

Compound: CCC(=O)Nc1ncnc2ncn(C(=O)CC)c12
- GI50: > 100 µM (inactive)

Compound: Oc1ccc2ccccc2c1/C=C/c1ccc2c(Br)cc(Br)c(O)c2n1
- GI50: 12.6 µM (inactive)

Compound: O=C(c1cccs1)N(Cc1cccnc1)C(=S)N(Cc1cccnc1)C(=O)c1cccs1
- GI50: 53.2 µM (inactive)

Compound: COC(=O)c1cc(CC2Cc3cc4c(cc3C2)CCC4)cc2c1CCC2
- GI50: > 100 µM (inactive)

Compound: CC(=O)C1=C(O)/C(=C\c2ccco2)OC1=O
- GI50: > 10 µM (inactive)

Compound: CC(C)(C)c1cc(C(C)(C)C)c2sc(=O)oc2c1O
- GI50: 16.4 µM (inactive)

Compound: CCN(CC)c1ccc(/C=C2\CCc3ccc([N+](=O)[O-])cc3C2=O)cc1
- GI50: 1.26 µM (inactive)

Compound: COC(=O)C1=NN2c3ccccc3CN([C@@H](C)c3ccccc3)C(=O)[C@@H]2C1
- GI50: 41.1 µM (inactive)

Compound: C=C1C(=O)O[C@@H]2C=C(C)C3=CC(=O)[C@](C)(C[C@H](OC(=O)/C(C)=C\C)[C@@H]12)O3
- GI50: 2.85 µM (inactive)

Compound: Oc1c(C2=N[C@H]3CCCC[C@@H]3N2)ccc2ccccc12
- GI50: > 100 µM (inactive)

Compound: O=C(CC(C(=O)c1ccsc1)c1ccccc1)c1cccs1 (configuration not stated)
- GI50: 58.7 µM (inactive)

Compound: Cc1cc(=O)oc2cc(OCc3c(F)cccc3Cl)ccc12
- GI50: 21.9 µM (inactive)

Compound: NC(C(F)(F)F)(C(F)(F)F)P(=O)(Cc1ccccc1)Cc1ccccc1
- GI50: 58.1 µM (inactive)

Compound: O=C1C=C2CCC[C@H]3OC(=O)C[C@@]23CC1
- GI50: > 100 µM (inactive)

Compound: C=CCC(CNC(=O)OCc1ccccc1)O[Si](C)(C)C(C)(C)C (configuration not stated)
- GI50: 45.2 µM (inactive)

Compound: OC(c1ccco1)C(F)(F)c1nc2ccccc2o1 (configuration not stated)
- GI50: > 100 µM (inactive)

Compound: Cn1c2ccc(Cl)cc2c2ccc3c(c21)C(=O)C=CC3=O
- GI50: > 10 µM (inactive)

Compound: CC(=O)NC1C(OCc2ccccc2)OC(CO)C(O)C1OC(C)C(=O)NC(C)C(=O)NC(CCC(=O)NCCCNc1c2ccccc2nc2cccc([N+](=O)[O-])c12)C(N)=O (configuration not stated)
- GI50: 6.78 µM (inactive)

Compound: Cn1cnc(N2CCCC2)c(C#N)c1=O
- GI50: > 100 µM (inactive)

Compound: CC(C)=CCC[C@@H](C)C1=C(Nc2ccccc2Cl)C(=O)C(C)=C(O)C1=O
- GI50: 3.42 µM (inactive)

Compound: COc1ccc(C2SCC(=O)N2NC(=O)C(C)Oc2ccccc2Cl)cc1 (configuration not stated)
- GI50: > 100 µM (inactive)

Compound: Nc1c(Cl)cc(-c2nc3ccccc3s2)cc1Cl
- GI50: > 100 µM (inactive)

Compound: O=C1c2ccccc2C(=O)c2c(NCCNC(=O)C3CCCN3)ccc(NCCNC(=O)C3CCCN3)c21 (configuration not stated)
- GI50: 37.1 µM (inactive)

Compound: CC1=NN(c2cc(Cl)c(S(=O)(=O)O)cc2Cl)C2(C1)C(Cl)C(=O)N2c1nc2ccccc2s1 (configuration not stated)
- GI50: > 100 µM (inactive)

Compound: O=P1(Oc2ccc(Cl)cc2)OCCS1 (configuration not stated)
- GI50: > 100 µM (inactive)

Compound: CC[C@H](C)C1=C(OC(C)=O)[N@+]2([O-])Oc3ccc(-c4c(O)c(O)c(-c5ccc(OC(C)=O)cc5)c(OC(C)=O)c4OC(C)=O)cc3O[C@]2([C@@H](C)CC)C(=O)N1O
- GI50: 29.3 µM (inactive)

Compound: O=C1c2ccccc2NC2C(O)c3ccccc3N12 (configuration not stated)
- GI50: 25.1 µM (inactive)

Compound: Nc1ccn(C2OC(C(OC3OC(CO)C(O)C(N)C3O)C(O)C(O)C(O)C(O)CO)C(N)C(O)C2O)c(=O)n1 (configuration not stated)
- GI50: 1.98 µM (inactive)

Compound: CN(C)C(=S)N/N=C\C(=N/NC(=S)N(C)C)c1ccccc1
- GI50: 4.57 µM (inactive)

Compound: COc1cccc(/N=N/C(=N/NC(=O)c2ccc(C)cc2)c2ccc(N(CCC#N)CCC#N)cc2OC)c1
- GI50: > 100 µM (inactive)

Compound: O=C(O)C1OC1C(=O)O (configuration not stated)
- GI50: > 100 µM (inactive)

Compound: C/C=C/C1OC(O)(C(C)C(O)[C@H](C)C2OC(=O)/C(OC)=C/C(C)=C/[C@@H](C)[C@@H](O)[C@@H](C)C(O)C(C)C/C(C)=C/C=C/C2OC)C[C@@H](OC2CC(O)C(OC(N)=O)C(C)O2)C1C (some centres not stated)
- GI50: 0.889 µM (active)

Compound: Cc1ccsc1/C(S)=N\c1ccc(Cl)c(/C=N/OC(C)(C)C)c1
- GI50: 29.7 µM (inactive)

Compound: CC1(C)CC(O)C2=C(O1)C(=O)c1ncccc1C2=O (configuration not stated)
- GI50: 2.7 µM (inactive)

Compound: CC[C@](O)(CC(=O)O[C@H]1C(=O)O[C@@H]2C[C@H]3C(C)=CC(=O)[C@@H](O)[C@]3(C)[C@H]3[C@@]4(O)OC[C@]32[C@@H]1[C@@H](C)[C@H]4O)C(C)C
- GI50: < 0.01 µM (active)
